Molecular target: human TYK2 (JH2domain-pseudokinase) (Homo sapiens (Human), UniProt P29597)
Experiment: TYK2 JH2 Domain Binding Assay (KINOMEscan)
Details: 11-point 3-fold dilution, top concentration 30,000 nM, duplicate; read-out: hTYK2_JH2_Binding (Kd; nM)
Method: Binding constants for compounds of the present invention against the JH2 domain were determined by the following protocol for a KINOMEscan® assay (DiscoveRx). A fusion protein of a partial length construct of human TYK2 (JH2domain-pseudokinase) (amino acids G556 to D888 based on reference sequence NP_003322.3) and the DNA binding domain of NFkB was expressed in transiently transfected HEK293 cells. From these HEK 293 cells, extracts were prepared in M-PER extraction buffer (Pierce) in the presence of Protease Inhibitor Cocktail Complete (Roche) and Phosphatase Inhibitor Cocktail Set II (Merck) per manufacturers' instructions. The TYK2(JH2domain-pseudokinase) fusion protein was labeled with a chimeric double-stranded DNA tag containing the NFkB binding site (5′-[…]-3′) fused to an amplicon for qPCR readout, which was added directly to the expression extract (the final concentration of DNA-tag in the binding reaction is 0.1 nM).
The liganded beads were blocked with excess biotin and washed with blocking buffer (SeaBlock (Pierce), 1% BSA, 0.05% Tween 20, 1 mM DTT) to remove unbound ligand and to reduce nonspecific binding.
Extracts were loaded with DNA-tag and diluted into the binding reaction in a two step process. First extracts were diluted 1:100 in 1× binding buffer (PBS/0.05% Tween 20/10 mM DTT/0.1% BSA/2 μg/ml sonicated salmon sperm DNA) containing 10 nM DNA-tag. This dilution was allowed to equilibrate at room temperature for 15 minutes and then subsequently diluted 1:100 in 1× binding buffer. […] Kds were determined using an 11-point 3-fold compound dilution series with three DMSO control points. […] The compounds were then diluted directly into the assays such that the final concentration of DMSO was 0.9%. All reactions performed in polypropylene 384-well plates. Each was a final volume of 0.02 mL. Assays were incubated with shaking for 1 hour at room temperature. Then the beads were pelleted and washed with wash buffer (lx PBS, 0.05% Tween 20) to remove displaced kinase and test compound. […] The qPCR protocol consisted of a 10 minute hot start at 95° C., followed by 35 cycles of 95° C. for 15 seconds, 60° C. for 1 minute.
Kds were determined using an 11-point 3-fold compound dilution series with three DMSO control points. […] The compounds were then diluted directly into the assays such that the final concentration of DMSO was 0.9%. The Kds were determined using a compound top concentration of 30,000 nM. Kd measurements were performed in duplicate.
Binding constants (Kds) were calculated with a standard dose-response curve using the Hill equation: […]
The Hill Slope was set to −1.

Chain of human TYK2 (JH2domain-pseudokinase) (P29597 556-888): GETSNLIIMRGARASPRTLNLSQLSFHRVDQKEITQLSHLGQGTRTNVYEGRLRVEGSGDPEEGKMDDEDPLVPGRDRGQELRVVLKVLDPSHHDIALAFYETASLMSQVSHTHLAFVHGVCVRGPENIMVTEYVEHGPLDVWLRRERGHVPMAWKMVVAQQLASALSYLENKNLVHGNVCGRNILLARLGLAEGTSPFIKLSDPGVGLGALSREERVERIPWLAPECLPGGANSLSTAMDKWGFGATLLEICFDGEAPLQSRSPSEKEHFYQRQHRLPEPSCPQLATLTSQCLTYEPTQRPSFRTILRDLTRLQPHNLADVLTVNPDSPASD

CNc1cc(Nc2cccn(-c3ncco3)c2=O)nc2c(C(=O)NC3CC[C@@H](OC)C3)cnn12 (mixture of isomers) [Compound I-71, N-((trans-1,3)-3-Methoxycyclopentyl)-7-(methylamino)-5-((1-(oxazol-2-yl)-2-oxo-1,2-dihydropyridin-3-yl)amino)pyrazolo[1,5-a]pyrimidine-3-carboxamide]
Kd: 0.2 to 1 nM

CNc1cc(-c2cnc3n(CC(=O)N4CC5(COC5)C4)cccc2-3)nc2c(C(=O)NC3CC[C@@H]3OC)cnn12 (mixture of isomers) [Compound I-970]
Kd: < 0.2 nM

CNc1cc(Nc2cccn([C@H]3CCC[C@@](C)(O)C3)c2=O)nc2c(C(=O)NC3CC3)cnn12 [Compound I-2, N-Cyclopropyl-5-((1-((1S,3R)-3-hydroxy-3-methylcyclohexyl)-2-oxo-1,2-dihydropyridin-3-yl)amino)-7-(methylamino)pyrazolo[1,5-a]pyrimidine-3-carboxamide]
Kd: 0.2 to 1 nM

CNc1cc(Nc2cccn([C@H]3C[C@@H](OC)C3)c2=O)nc2c(C(=O)NC3CC3)cnn12 [Compound I-5, N-Cyclopropyl-5-((1-((1s,3s)-3-methoxycyclobutyl)-2-oxo-1,2-dihydropyridin-3-yl)amino)-7-(methylamino)pyrazolo[1,5-a]pyrimidine-3-carboxamide]
Kd: < 0.2 nM

CNc1cc(Nc2cccn([C@H]3C[C@@H](OC)C3)c2=O)nc2c(C(=O)N[C@@H]3C[C@@H]3F)cnn12 [Compound I-9, N-((1R,2S)-2-Fluorocyclopropyl)-5-((1-((1s,3S)-3-methoxycyclobutyl)-2-oxo-1,2-dihydropyridin-3-yl)amino)-7-(methylamino)pyrazolo[1,5-a]pyrimidine-3-carboxamide]
Kd: < 0.2 nM

CNc1cc(Nc2cccn([C@H]3C[C@@H]3F)c2=O)nc2c(C(=O)N[C@@H]3CC[C@@H]3O)cnn12 [Compound I-13, 5-((1-((1S,2S)-2-Fluorocyclopropyl)-2-oxo-1,2-dihydropyridin-3-yl)amino)-N-((1R,2S)-2-hydroxycyclobutyl)-7-(methylamino)pyrazolo[1,5-a]pyrimidine-3-carboxamide]
Kd: 0.2 to 1 nM

CNc1cc(-c2cn([C@H]3CCCOC3)c3ncccc23)nc2c(C(=O)N[C@H]3CC[C@H]3O)cnn12 [Compound I-15, N-((1S,2R)-2-Hydroxycyclobutyl)-7-(methylamino)-5-(1-((S)-tetrahydro-2H-pyran-3-yl)-1H-pyrrolo[2,3-b]pyridin-3-yl)pyrazolo[1,5-a]pyrimidine-3-carboxamide]
Kd: 0.2 to 1 nM

CNc1cc(Nc2cccn(C3CCOCC3)c2=O)nc2c(C(=O)N[C@@H]3C[C@H]3OC)cnn12 [Compound I-27, N-((1R,2R)-2-Methoxycyclopropyl)-7-(methylamino)-5-((2-oxo-1-(tetrahydro-2H-pyran-4-yl)-1,2-dihydropyridin-3-yl)amino)pyrazolo[1,5-a]pyrimidine-3-carboxamide]
Kd: < 0.2 nM

CNc1cc(Nc2cccn(C3CCOCC3)c2=O)nc2c(C(=O)N[C@H]3C[C@@H]3OC)cnn12 [Compound I-28, N-((1S,2S)-2-Methoxycyclopropyl)-7-(methylamino)-5-((2-oxo-1-(tetrahydro-2H-pyran-4-yl)-1,2-dihydropyridin-3-yl)amino)pyrazol[1,5-a]pyrimidine-3-carboxamide]
Kd: < 0.2 nM

CNc1cc(Nc2cccn(C(C)C)c2=O)nc2c(C(=O)N[C@@H]3C[C@H]3OC)cnn12 [Compound I-29, 5-((1-Isopropyl-2-oxo-1,2-dihydropyridin-3-yl)amino)-N-((1R,2R)-2-methoxycyclopropyl)-7-(methylamino)pyrazolo[1,5-a]pyrimidine-3-carboxamide]
Kd: 0.2 to 1 nM

CNc1cc(Nc2cccn(C(C)C)c2=O)nc2c(C(=O)N[C@H]3C[C@@H]3OC)cnn12 [Compound I-30, 5-((1-Isopropyl-2-oxo-1,2-dihydropyridin-3-yl)amino)-N-((1S,2S)-2-methoxycyclopropyl)-7-(methylamino)pyrazolo[1,5-a]pyrimidine-3-carboxamide]
Kd: 0.2 to 1 nM

CNc1cc(Nc2cccn(-c3ccc(C)nc3)c2=O)nc2c(C(=O)N[C@H]3C[C@@H]3OC)cnn12 [Compound I-35, N-((1S,2S)-2-Methoxycyclopropyl)-5-((6′-methyl-2-oxo-2H-[1,3′-bipyridin]-3-yl)amino)-7-(methylamino)pyrazolo[1,5-a]pyrimidine-3-carboxamide]
Kd: < 0.2 nM

CNc1cc(Nc2cccn([C@@H]3C[C@H]3F)c2=O)nc2c(C(=O)N[C@@H]3CC[C@H](O)C3)cnn12 [Compound I-42, 5-((1-((1R,2R)-2-Fluorocyclopropyl)-2-oxo-1,2-dihydropyridin-3-yl)amino)-N-((1R,3S)-3-hydroxycyclopentyl)-7-(methylamino)pyrazolo[1,5-a]pyrimidine-3-carboxamide]
Kd: 0.2 to 1 nM

CNc1cc(Nc2cccn([C@@H]3C[C@H]3F)c2=O)nc2c(C(=O)N[C@H]3CC[C@@H](O)C3)cnn12 [Compound I-43, 5-((1-((1R,2R)-2-Fluorocyclopropyl)-2-oxo-1,2-dihydropyridin-3-yl)amino)-N-((1S,3R)-3-hydroxycyclopentyl)-7-(methylamino)pyrazolo[1,5-a]pyrimidine-3-carboxamide]
Kd: 0.2 to 1 nM

CNc1cc(Nc2cccn([C@H]3C[C@@H]3F)c2=O)nc2c(C(=O)N[C@@H]3CC[C@H](O)C3)cnn12 [Compound I-44, 5-((1-((1S,2S)-2-Fluorocyclopropyl)-2-oxo-1,2-dihydropyridin-3-yl)amino)-N-((1R,3S)-3-hydroxycyclopentyl)-7-(methylamino)pyrazolo[1,5-a]pyrimidine-3-carboxamide]
Kd: 0.2 to 1 nM

CNc1cc(Nc2cccn([C@H]3C[C@@H]3F)c2=O)nc2c(C(=O)N[C@H]3CC[C@@H](O)C3)cnn12 [Compound I-45, 5-((1-((1S,2S)-2-Fluorocyclopropyl)-2-oxo-1,2-dihydropyridin-3-yl)amino)-N-((1S,3R)-3-hydroxycyclopentyl)-7-(methylamino)pyrazolo[1,5-a]pyrimidine-3-carboxamide]
Kd: 0.2 to 1 nM

CNc1cc(Nc2cccn([C@H]3C[C@@H]3F)c2=O)nc2c(C(=O)N[C@@H]3CC[C@H]3OC)cnn12 [Compound I-50, 5-((1-((1S,2S)-2-Fluorocyclopropyl)-2-oxo-1,2-dihydropyridin-3-yl)amino)-N-((1R,2R)-2-methoxycyclobutyl)-7-(methylamino)pyrazolo[1,5-a]pyrimidine-3-carboxamide]
Kd: 1 to 10 nM

CNc1cc(Nc2cccn([C@@H]3C[C@H]3F)c2=O)nc2c(C(=O)N[C@H]3CC[C@@H]3OC)cnn12 [Compound I-52, 5-((1-((1R,2R)-2-Fluorocyclopropyl)-2-oxo-1,2-dihydropyridin-3-yl)amino)-N-((1S,2S)-2-methoxycyclobutyl)-7-(methylamino)pyrazolo[1,5-a]pyrimidine-3-carboxamide]
Kd: 0.2 to 1 nM

CNc1cc(-c2cn(CCN3CCOCC3)c3ncccc23)nc2c(C(=O)N[C@H]3CC[C@@H]3OC)cnn12 [Compound I-54, N-((1S,2S)-2-Methoxycyclobutyl)-7-(methylamino)-5-(1-(2-morpholinoethyl)-1H-pyrrolo[2,3-b]pyridin-3-yl)pyrazolo[1,5-a]pyrimidine-3-carboxamide]
Kd: < 0.2 nM

CNc1cc(-c2cn(CCN3CCOCC3)c3ncccc23)nc2c(C(=O)N[C@@H]3CC[C@H]3OC)cnn12 [Compound I-55, N-((1R,2R)-2-Methoxycyclobutyl)-7-(methylamino)-5-(1-(2-morpholinoethyl)-1H-pyrrolo[2,3-b]pyridin-3-yl)pyrazolo[1,5-a]pyrimidine-3-carboxamide]
Kd: 0.2 to 1 nM

CNc1cc(-c2cn([C@H]3CCCOC3)c3ncccc23)nc2c(C(=O)N[C@H]3COC[C@H]3O)cnn12 [Compound I-60, N-((3S,4S)-4-Hydroxytetrahydrofuran-3-yl)-7-(methylamino)-5-(1-((S)-tetrahydro-2H-pyran-3-yl)-1H-pyrrolo[2,3-b]pyridin-3-yl)pyrazolo[1,5-a]pyrimidine-3-carboxamide]
Kd: < 0.2 nM

CNc1cc(-c2cn([C@H]3CCCOC3)c3ncccc23)nc2c(C(=O)N[C@@H]3COC[C@@H]3O)cnn12 [Compound I-61, N-((3R,4R)-4-Hydroxytetrahydrofuran-3-yl)-7-(methylamino)-5-(1-((S)-tetrahydro-2H-pyran-3-yl)-1H-pyrrolo[2,3-b]pyridin-3-yl)pyrazolo[1,5-a]pyrimidine-3-carboxamide]
Kd: 1 to 10 nM

Reference: patent US11414431B2, “Substituted pyrazolo[1,5-a]pyrimidines as TYK2 inhibitors” (Nimbus Lakshmi, Inc., priority 2018, dated 2022)
